In PubChem BioAssay AID1259407 (Chemical Carcinogenesis Research Information System (CCRIS), 2018):
Active and inactive are the calls of the source. The rule behind the calls is not given here.

System: CCRIS mutagenicity, Ames/micronucleus/aberration tests
Assay: CCRIS mutagenicity studies

Compound: ClCCl
- mutagenic call (End Point: IN VITRO CHROMOSOMAL ABERRATIONS, Test System: CHO CELLS, Metabolic Activation: NONE): inactive; negative
- mutagenic call (End Point: IN VITRO CHROMOSOMAL ABERRATIONS, Test System: CHO CELLS, Metabolic Activation: RAT, LIVER, S-9, AROCLOR 1254): inactive; negative
- mutagenic call (Test System: AMES SALMONELLA TYPHIMURIUM, Strain/Indicator: NG54 (GSH), Metabolic Activation: GLUTATHIONE): active; positive
- mutagenic call (Test System: AMES SALMONELLA TYPHIMURIUM, Strain/Indicator: NG54 (GSH), Metabolic Activation: NONE): active; positive
- mutagenic call (Test System: AMES SALMONELLA TYPHIMURIUM, Strain/Indicator: NG54 (GSH), Metabolic Activation: RAT, LIVER, S-9, AROCLOR 1254): active; positive
- mutagenic call (Test System: AMES SALMONELLA TYPHIMURIUM, Strain/Indicator: NG54 (GSH), Metabolic Activation: RAT, LIVER, S-9, AROCLOR 1254, GLUTATHIONE): active; positive
- mutagenic call (Test System: AMES SALMONELLA TYPHIMURIUM, Strain/Indicator: NG-11, Metabolic Activation: GLUTATHIONE, Method: DESICCATOR): active; positive
- mutagenic call (Test System: AMES SALMONELLA TYPHIMURIUM, Strain/Indicator: NG-11, Metabolic Activation: NONE, Method: DESICCATOR): active; positive
- mutagenic call (Test System: AMES SALMONELLA TYPHIMURIUM, Strain/Indicator: RSJ100, Metabolic Activation: NONE, Method: STANDARD PLATE): active; positive
- mutagenic call (Test System: AMES SALMONELLA TYPHIMURIUM, Strain/Indicator: TA97, Metabolic Activation: NONE, Method: STANDARD PLATE): active; positive
- mutagenic call (Test System: AMES SALMONELLA TYPHIMURIUM, Strain/Indicator: TA97, Metabolic Activation: RAT, LIVER, S-9, AROCLOR 1254, Method: STANDARD PLATE): active; positive
- mutagenic call (Test System: AMES SALMONELLA TYPHIMURIUM, Strain/Indicator: TA98, Metabolic Activation: NONE, Method: GAS EXPOSURE): active; positive
- mutagenic call (Test System: AMES SALMONELLA TYPHIMURIUM, Strain/Indicator: TA98, Metabolic Activation: NONE, Method: STANDARD PLATE): inactive; negative
- mutagenic call (Test System: AMES SALMONELLA TYPHIMURIUM, Strain/Indicator: TA98, Metabolic Activation: RAT, LIVER, S-9, AROCLOR 1254, Method: STANDARD PLATE): active; positive
- mutagenic call (Test System: AMES SALMONELLA TYPHIMURIUM, Strain/Indicator: TA98, Metabolic Activation: RAT, LIVER, S-9, PHENOBARBITAL AND BETA-NAPHTHOFLAVONE, Method: GAS EXPOSURE): active; positive
- mutagenic call (Test System: AMES SALMONELLA TYPHIMURIUM, Strain/Indicator: TA98, Metabolic Activation: RAT, LIVER, S-9, PHENOBARBITAL, Method: DESICCATOR): active; positive
- mutagenic call (Test System: AMES SALMONELLA TYPHIMURIUM, Strain/Indicator: TA100, Metabolic Activation: GLUTATHIONE): active; positive
- mutagenic call (Test System: AMES SALMONELLA TYPHIMURIUM, Strain/Indicator: TA100, Metabolic Activation: GLUTATHIONE, Method: DESICCATOR): active; positive
- mutagenic call (Test System: AMES SALMONELLA TYPHIMURIUM, Strain/Indicator: TA100, Metabolic Activation: NONE): active; positive
- mutagenic call (Test System: AMES SALMONELLA TYPHIMURIUM, Strain/Indicator: TA100, Metabolic Activation: NONE, Method: DESICCATOR): active; positive
- mutagenic call (Test System: AMES SALMONELLA TYPHIMURIUM, Strain/Indicator: TA100, Metabolic Activation: NONE, Method: GAS EXPOSURE): active; positive
- mutagenic call (Test System: AMES SALMONELLA TYPHIMURIUM, Strain/Indicator: TA100, Metabolic Activation: RAT, LIVER, MICROSOMES, AROCLOR 1254): active; positive
- mutagenic call (Test System: AMES SALMONELLA TYPHIMURIUM, Strain/Indicator: TA100, Metabolic Activation: RAT, LIVER, S-9, AROCLOR 1254): active; positive
- mutagenic call (Test System: AMES SALMONELLA TYPHIMURIUM, Strain/Indicator: TA100, Metabolic Activation: RAT, LIVER, S-9, AROCLOR 1254, GLUTATHIONE): active; positive
- mutagenic call (Test System: AMES SALMONELLA TYPHIMURIUM, Strain/Indicator: TA100, Metabolic Activation: RAT, LIVER, S-9, AROCLOR 1254, Method: STANDARD PLATE): active; positive
- mutagenic call (Test System: AMES SALMONELLA TYPHIMURIUM, Strain/Indicator: TA100, Metabolic Activation: RAT, LIVER, S-9, PHENOBARBITAL AND BETA-NAPHTHOFLAVONE, Method: GAS EXPOSURE): active; positive
- mutagenic call (Test System: AMES SALMONELLA TYPHIMURIUM, Strain/Indicator: TA100, Metabolic Activation: RAT, LIVER, S-9, PHENOBARBITAL, Method: DESICCATOR): active; positive
- mutagenic call (Test System: AMES SALMONELLA TYPHIMURIUM, Strain/Indicator: TA100, Metabolic Activation: RAT, LIVER, S-100, AROCLOR 1254): active; positive
- mutagenic call (Test System: AMES SALMONELLA TYPHIMURIUM, Strain/Indicator: TA102, Metabolic Activation: NONE, Method: STANDARD PLATE): inactive; negative
- mutagenic call (Test System: AMES SALMONELLA TYPHIMURIUM, Strain/Indicator: TA104, Metabolic Activation: NONE, Method: STANDARD PLATE): active; positive
- mutagenic call (Test System: AMES SALMONELLA TYPHIMURIUM, Strain/Indicator: TA104, Metabolic Activation: RAT, LIVER, S-9, AROCLOR 1254, Method: STANDARD PLATE): inactive; negative
- mutagenic call (Test System: AMES SALMONELLA TYPHIMURIUM, Strain/Indicator: TA1535 (GST+), Metabolic Activation: NONE, Method: STANDARD PLATE): active; positive
- mutagenic call (Test System: AMES SALMONELLA TYPHIMURIUM, Strain/Indicator: TA1535, Metabolic Activation: NONE, Method: GAS EXPOSURE): active; positive
- mutagenic call (Test System: AMES SALMONELLA TYPHIMURIUM, Strain/Indicator: TA1535, Metabolic Activation: NONE, Method: STANDARD PLATE): inactive; negative
- mutagenic call (Test System: AMES SALMONELLA TYPHIMURIUM, Strain/Indicator: TA1535, Metabolic Activation: RAT, LIVER, S-9, PHENOBARBITAL AND BETA-NAPHTHOFLAVONE, Method: GAS EXPOSURE): active; positive
- mutagenic call (Test System: AMES SALMONELLA TYPHIMURIUM, Strain/Indicator: TA1537, Metabolic Activation: NONE, Method: GAS EXPOSURE): inactive; negative
- mutagenic call (Test System: AMES SALMONELLA TYPHIMURIUM, Strain/Indicator: TA1537, Metabolic Activation: RAT, LIVER, S-9, PHENOBARBITAL AND BETA-NAPHTHOFLAVONE, Method: GAS EXPOSURE): inactive; negative
- mutagenic call (Test System: AMES SALMONELLA TYPHIMURIUM, Strain/Indicator: TA2638, Metabolic Activation: NONE, Method: STANDARD PLATE): inactive; negative
- mutagenic call (Test System: CHINESE HAMSTER OVARY, Strain/Indicator: CHO-K1 (HPRT)/6-THIOGUANINE, Metabolic Activation: MOUSE, LIVER, S-100 (2.5-25%), 5 MILLIMOLAR GLUTATHIONE, Method: SUSPENSION/PLATE): active; positive
- mutagenic call (Test System: CHINESE HAMSTER OVARY, Strain/Indicator: CHO-K1 (HPRT)/6-THIOGUANINE, Metabolic Activation: MOUSE, LIVER, S-100 (15-25%), DL-BUTHIONINE-(S,R)-SULFOXIMINE, Method: SUSPENSION): inactive; negative
- mutagenic call (Test System: CHINESE HAMSTER OVARY, Strain/Indicator: CHO-K1 (HPRT)/6-THIOGUANINE, Metabolic Activation: MOUSE, LIVER, S-100 (15-35%), 5 MILLIMOLAR GLUTATHIONE, Method: SUSPENSION): active; positive
- mutagenic call (Test System: E. COLI, Strain/Indicator: K12(AB1157), Metabolic Activation: MOUSE, LIVER, S-9, Method: SUSPENSION/PLATE): active; positive
- mutagenic call (Test System: E. COLI, Strain/Indicator: K12(AB1157), Metabolic Activation: NONE, Method: SUSPENSION/PLATE): inactive; negative
- mutagenic call (Test System: E. COLI, Strain/Indicator: K12(AB1157), Metabolic Activation: RAT, LIVER, S-9, Method: SUSPENSION/PLATE): inactive; negative
- mutagenic call (Test System: E. COLI, Strain/Indicator: K12(AB1886) UVRA, Metabolic Activation: MOUSE, LIVER, S-9, Method: SUSPENSION/PLATE): inactive; negative
- mutagenic call (Test System: E. COLI, Strain/Indicator: K12(AB1886) UVRA, Metabolic Activation: NONE, Method: SUSPENSION/PLATE): inactive; negative
- mutagenic call (Test System: E. COLI, Strain/Indicator: K12(AB1886) UVRA, Metabolic Activation: RAT, LIVER, S-9, Method: SUSPENSION/PLATE): inactive; negative
- mutagenic call (Test System: E. COLI, Strain/Indicator: WP2 (PKM101), Metabolic Activation: NONE, Method: STANDARD PLATE): inactive; negative
- mutagenic call (Test System: E. COLI, Strain/Indicator: WP2 UVRA (PKM101), Metabolic Activation: NONE): active; positive
- mutagenic call (Test System: E. COLI, Strain/Indicator: WP2 UVRA (PKM101), Metabolic Activation: NONE, Method: STANDARD PLATE): inactive; negative
- mutagenic call (Test System: E. COLI, Strain/Indicator: WP2 UVRA (PKM101), Metabolic Activation: RAT, LIVER, HOMOGENATE, AROCLOR 1254): active; positive
- mutagenic call (Test System: E. COLI, Strain/Indicator: WP2 UVRA (PKM101), Metabolic Activation: RAT, LIVER, MICROSOMES, AROCLOR 1254): active; positive
- mutagenic call (Test System: E. COLI, Strain/Indicator: WP2 UVRA (PKM101), Metabolic Activation: RAT, LIVER, S-9, AROCLOR 1254): active; positive
- mutagenic call (Test System: E. COLI, Strain/Indicator: WP2 UVRA (PKM101), Metabolic Activation: RAT, LIVER, S-100, AROCLOR 1254): active; positive
- mutagenic call (Test System: E. COLI, Strain/Indicator: WP2UVRA/PKM101, Metabolic Activation: NONE, Method: GAS EXPOSURE): active; positive
- mutagenic call (Test System: E. COLI, Strain/Indicator: WP2UVRA/PKM101, Metabolic Activation: RAT, LIVER, S-9, PHENOBARBITAL AND BETA-NAPHTHOFLAVONE, Method: GAS EXPOSURE): active; positive
- mutagenic call (Test System: E. COLI, Strain/Indicator: WP2UVRA, Metabolic Activation: NONE, Method: GAS EXPOSURE): active; positive
- mutagenic call (Test System: E. COLI, Strain/Indicator: WP2UVRA, Metabolic Activation: RAT, LIVER, S-9, PHENOBARBITAL AND BETA-NAPHTHOFLAVONE, Method: GAS EXPOSURE): active; positive
- mutagenic call (Test System: Mouse lymphoma, Strain/Indicator: L5178Y (tk+/tk-), Metabolic Activation: None, Method: Suspension/plate): inactive; negative
- mutagenic call (Test System: Mouse lymphoma, Strain/Indicator: L5178Y (tk+/tk-), Metabolic Activation: Rat, Liver, S-9, Aroclor 1254, Method: Suspension/plate): inactive; negative
